Experimental data: patent US11899014B2, “Detection of analytes using live cells” (THE TRUSTEES OF COLUMBIA UNIVERSITY IN THE CITY OF NEW YORK, priority 2014, dated 2024)

Columns and labels:
[1] = system: C. albicans mating receptor (Ca.Ste2) biosensor; assay: Paper-based dipstick assay, lycopene readout, C. albicans biosensor; format: cell-based, Candida albicans; conditions: 1 μM peptide
[2] = target: S. cerevisiae native Ste2 receptor (Saccharomyces cerevisiae, UniProt D6VTK4); assay: Fungal GPCR activation in S. cerevisiae sensor strain, fluorescent reporter; format: cell-based; conditions: non-cognate peptide
S. cerevisiae native Ste2 receptor, sequence (D6VTK4 whole entry): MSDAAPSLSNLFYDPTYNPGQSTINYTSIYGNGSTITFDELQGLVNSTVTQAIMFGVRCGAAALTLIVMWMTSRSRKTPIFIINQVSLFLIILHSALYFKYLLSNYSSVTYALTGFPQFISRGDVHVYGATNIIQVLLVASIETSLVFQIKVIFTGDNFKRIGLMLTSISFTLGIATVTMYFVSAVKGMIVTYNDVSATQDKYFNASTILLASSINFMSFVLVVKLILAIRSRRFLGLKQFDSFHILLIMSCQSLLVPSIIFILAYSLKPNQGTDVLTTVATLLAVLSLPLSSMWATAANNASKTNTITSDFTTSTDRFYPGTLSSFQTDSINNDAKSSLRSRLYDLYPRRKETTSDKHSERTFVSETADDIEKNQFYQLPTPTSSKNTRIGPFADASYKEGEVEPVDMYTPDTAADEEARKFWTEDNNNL

M. oryzea mating GPCR = format: cell-based, Magnaporthe oryzea
B. cinerea mating GPCR = format: cell-based, Botrytis cinerea; conditions: cognate synthetic peptide pheromone, fluorescent readout
[3] = system: P. brasiliensis mating receptor (Pb.Ste2) biosensor; format: cell-based, Paracoccidioides brasiliensis
[4] = system: F. graminearum mating GPCR; format: cell-based, Fusarium graminearum
endogenous GPCR Ste2 = endogenous GPCR Ste2 (Saccharomyces cerevisiae, UniProt D6VTK4); format: cell-based, S. cerevisiae; conditions: v1.0 lycopene reporter strain
endogenous GPCR Ste2, sequence (D6VTK4 whole entry): as above

[5] = system: C. albicans mating GPCR (Ca.Ste2); format: cell-based, Candida albicans; conditions: non-cognate peptide
[6] = system: L. elongisporous mating GPCR; format: cell-based; conditions: cognate synthetic peptide pheromone, fluorescent readout

In the case of “GFRLTNFGYFEPG [GFRLTNFGYFEPG (SEQ ID NO: 5)]”, the “time to maximal response in dipstick assay” value [1] is reported as ≤ 12 h, the “response of S. cerevisiae native Ste2 receptor to non-cognate pheromone” value [2] is reported as “not” and the “response of C. glabrata receptor to the other species pheromone” value (C. glabrata mating GPCR; non-cognate peptide) is reported as “did not respond”.
Sequence “QWCPRRGQPCW [QWCPRRGQPCW (SEQ ID NO: 17)]” has an EC50 (M. oryzea mating GPCR) of 5 µM.
With WCGRPGQPC [WCGRPGQPC (SEQ ID NO: 20)] the EC50 (B. cinerea mating GPCR) was < 0.001 µM.
WCTRPGQGC [WCTRPGQGC (SEQ ID NO: 11)] was tested, and the “time to maximal response in dipstick assay” value [3] was ≤ 12 h.
For WCWWKGQPCW [WCWWKGQPCW (SEQ ID NO: 14)], the EC50 [4] was 0.23 µM.
With “WHWLQLKPGQPMY [WHWLQLKPGQPMY (SEQ ID NO: 24)]” the “time until reporter strain became visibly orange after exposure” value (endogenous GPCR Ste2) was 36 h.
For “WHWVRLRKGQGLF [WHWVRLRKGQGLF (SEQ ID NO: 8)]”, the “response of S. cerevisiae native Ste2 receptor to non-cognate pheromone” value [2] was “responded”, the “response of C. albicans receptor to the other species pheromone” value [5] was “did not respond” and the EC50 (C. glabrata mating GPCR; cognate synthetic peptide pheromone, biosensor settings) was 3.6 µM.
“WMWTRYGRFSPV [WMWTRYGRFSPV (SEQ ID NO: 34)]” showed an EC50 [6] of 0.051 µM.
